Each structure is given as a SMILES string. Peptide text beside a SMILES is read from it.

This test addresses γ-secretase against βCTF (C99-FLAG) (Homo sapiens, UniProt P05067). As to the kind of experiment: γ-Secretase activity inhibition experiment in vitro, C99-FLAG substrate. It is filed as biochemical. To be noted: polypeptide 50 μM, 4 hours, 37° C., Western blotting. The method, then: A polypeptide having βCTF (C99-FLAG: SEQ ID NO: 16) and mouse-derived Notch protein having a FLAG peptide at the C-terminal side (modification of NCBI Accession No. Q01705.2; SEQ ID NO: 17; hereunder referred to as “Notch”) shown in FIG. 2(A) were each made into a solution having a final concentration of 50 nM.
To these solutions, 9-7 polypeptide, 6-5 polypeptide, #1 polypeptide, #2 polypeptide, #3 polypeptide, and #4 polypeptide were added in such a manner that the final concentrations were 50 μM, followed by reacting with 50 μL of CHAPSO-solubilized membrane fraction (γ-secretase-containing fraction) for 4 hours. The reaction temperature was 37° C. As a negative control experiment, DMSO was used in place of the six types of polypeptides described above.
Each sample after completion of the reaction was measured in the following manner. As shown in FIG. 2(A), a sample using C99-FLAG was subjected to Western blotting using a monoclonal antibody (82E-1) that specifically recognizes the N terminal of C99-FLAG, and the amount of Aβ40 protein produced by the cleavarage by γ-secretase was measured. In contrast, the reaction sample using Notch-FLAG was subjected to Western blotting using an anti-FLAG monoclonal antibody, and the amount of NICD produced to the separete by γ-secretase was also measured. FIG. 2(B) and FIG. 2(C) show the results.
An experiment was conducted in the same manner as in Experimental Example 1 described above, except that only #1 polypeptide was used and the amount of #1 polypeptide was selected so that the final concentrations were 0.5, 1, 5, 10, 20, and 50 μM.
An experiment was conducted in the same manner as in Experimental Example 1 described above, except that S4 polypeptide was used as the polypeptide, and each addition amount was set in such a manner that the final concentrations were 1, 5, 10, 20, and 50 μM. In this Experimental Example, #4 polypeptide was added in such a manner that the final result was 50 μM.
(In general: A western blot detects proteins with antibodies after separation by electrophoresis.)

Sequence of γ-secretase against βCTF (C99-FLAG) (P05067 with tags, fused parts or gaps): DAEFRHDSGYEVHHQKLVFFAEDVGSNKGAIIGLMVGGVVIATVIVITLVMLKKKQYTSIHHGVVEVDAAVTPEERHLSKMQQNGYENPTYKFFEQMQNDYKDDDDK

Turning to `CC[C@H](C)[C@H](NC(=O)[C@H](CC(=O)O)NC(=O)[C@@H](NC(=O)[C@@H](NC(=O)[C@H](CS)NC(=O)[C@H](Cc1ccc(O)cc1)NC(=O)[C@H](CS)NC(=O)[C@H](CC(=O)O)NC(=O)[C@H](CS)NC(=O)[C@@H](NC(=O)[C@@H](NC(=O)[C@H](CC(C)C)NC(=O)[C@H](Cc1c[nH]cn1)NC(=O)[C@H](CCSC)NC(C)=O)C(C)C)[C@@H](C)CC)[C@@H](C)O)[C@@H](C)O)C(=O)N[C@@H](CS)C(=O)N[C@@H](Cc1ccc(O)cc1)C(=O)N[C@@H](CS)C(=O)N[C@@H](Cc1ccc(O)cc1)C(=O)N[C@@H](CO)C(=O)N[C@@H](CS)C(=O)N[C@H](C(=O)N1CCC[C@H]1C(=O)N[C@@H](CC(N)=O)C(N)=O)[C@@H](C)O` [#4] (Ac-MHLVICDCYCTTDICYCYSCTPN-NH2), the “cleavage activity of γ-secretase against βCTF (Aβ40 from C99-FLAG)” value is listed as “inhibited more cleavage activity of γ-secretase against βCTF”.

(Values after patent publication US9045525B2, “Amyloid β-protein-specific production-inhibiting polypeptide” (THE DOSHISHA, priority 2012, dated 2015).)
